Drawing on patent publication US7244727B2, “Fused bicyclic nitrogen-containing heterocycles” (Japan Tobacco Inc., priority 2002, dated 2007), this text covers IC50 and melting point for 45 compounds.

Molecules are shown by their SMILES. Bounds are passed on as bounds.

The IC50 is the concentration that inhibits the measured activity by half. One may read the melting point as the temperature, or range, at which the solid turns liquid.

The target of data set [1] is T1, human DGAT1 (Homo sapiens, UniProt O75907).
T1 construct: made in house; host or cells: insect cells (sf9, sf21 or High Five) infected with baculovirus; total cell membranes
T1 sequence (O75907 1-488): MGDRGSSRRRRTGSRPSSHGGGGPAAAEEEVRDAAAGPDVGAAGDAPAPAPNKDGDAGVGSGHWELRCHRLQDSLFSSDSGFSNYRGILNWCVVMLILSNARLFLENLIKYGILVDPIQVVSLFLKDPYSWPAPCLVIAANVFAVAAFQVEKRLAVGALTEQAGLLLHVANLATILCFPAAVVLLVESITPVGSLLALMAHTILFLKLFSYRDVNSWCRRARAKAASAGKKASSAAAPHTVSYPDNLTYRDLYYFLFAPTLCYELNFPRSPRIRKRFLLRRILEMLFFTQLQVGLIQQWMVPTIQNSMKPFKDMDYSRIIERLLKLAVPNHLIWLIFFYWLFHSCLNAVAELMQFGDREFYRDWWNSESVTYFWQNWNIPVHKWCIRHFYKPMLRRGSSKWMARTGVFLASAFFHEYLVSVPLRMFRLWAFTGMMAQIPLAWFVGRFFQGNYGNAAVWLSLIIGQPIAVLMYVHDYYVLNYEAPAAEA
As to the kind of experiment: DGAT Scintillation Proximity Assay (SPA) with membranes of insect cells expressing human flagtag DGAT1. To be noted: read-out: hDGAT1 IC50. The format is biochemical. An outline of the steps: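 Membranes (0.2 μg/well) from insect cells expressing human flag-tagged DGAT1 incubated with 10 μM compound and 200 μM dioleoyl glycerol substrate; mercuric chloride as inhibition control. Reaction stopped with WGA SPA beads in mercuric chloride, overnight bead coupling, then scintillation proximity signal read.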
(In general: SPA uses beads or plates that emit light when radiolabelled molecules are held near them.)

In turn, `CC1(C)Oc2ncnc(N)c2N=C1c1ccc([C@H]2CC[C@H](CC(=O)N3CCC(O)C3)CC2)cc1` (stereo partly drawn) [Example 2-101] registered a melting point of 237 to 239 °C. Further, in data set [1], the IC50 was 10 to 100 nM.

Compound `CC1(C)Oc2ncnc(N)c2N=C1c1ccc([C@H]2CC[C@H](CC(=O)N3CCCCC3)CC2)cc1` [Example 2-93] yielded a melting point of 146 to 147 °C. In data set [1], the IC50 lay within 10 to 100 nM.

`Cc1nc(N)c2c(n1)OC(C)(C)C(c1ccc([C@H]3CC[C@H](CCC(=O)NC(C)(C)CO)CC3)cc1)=N2` [Example 2-193] came in with a melting point greater than 240 °C. Further, the IC50 in data set [1] lay in the range of 10 to 100 nM.

Consider `Cc1nc(N)c2c(n1)OC(C)(C)C(c1ccc([C@H]3CC[C@H](CCc4nc(=O)[nH]n4C)CC3)cc1)=N2` [Example 2-198], for which the melting point is greater than 250 °C. The IC50 in data set [1] lay within 10 to 100 nM.

With `CCOC(=O)C=C1CCC(c2ccc(C3=Nc4c(N)ncnc4OC3(C)C)cc2)CC1` (stereo not drawn) [Example 2-39], the melting point lay within 207 to 208 °C. Moreover, the IC50 in data set [1] was greater than 100 nM.

`CC1(C)Oc2ncnc(N)c2N=C1c1ccc2c(c1)C(CC(=O)O)CCC2` (stereo not drawn) [Example 2-68] came in with a melting point greater than 250 °C. In data set [1], the IC50 was greater than 100 nM.

Consider `CN(CCO)C(=O)C[C@H]1CC[C@H](c2ccc(C3=Nc4c(N)ncnc4OC3(C)C)cc2)CC1` [Example 2-99], for which the melting point was 113 to 115 °C. The IC50 in data set [1] is 10 to 100 nM.

With `Cc1ccc(S(=O)(=O)NC[C@H]2CC[C@H](c3ccc(C4=Nc5c(N)ncnc5OC4(C)C)cc3)CC2)cc1` [Example 2-129], the melting point lay within 206 to 207 °C. The IC50 in data set [1] lay within 10 to 100 nM.

Consider `Cc1nc(N)c2c(n1)OC(C)(C)C(c1ccc([C@H]3CC[C@H](CNC(=O)N4CCOCC4)CC3)c(Cl)c1)=N2` [Example 6-15], for which the melting point was 225 to 228 °C. The IC50 in data set [1] was 10 to 100 nM.

With `CC1(C)Oc2ncnc(N)c2N=C1c1ccc([C@H]2CC[C@H](CN3CCC(C(N)=O)CC3)CC2)cc1` [Example 2-251], the melting point lay in the range of 159 to 164 °C. In addition, the IC50 in data set [1] lay in the range of 10 to 100 nM.

Compound `CCNC(=O)NC[C@H]1CC[C@H](c2ccc(C3=Nc4c(N)nc(C)nc4OC3(C)C)cc2Cl)CC1` [Example 6-13] returned a melting point greater than 250 °C. Also, in data set [1], the IC50 was less than 10 nM.

On to `CC1(C)Oc2ncnc(N)c2N=C1c1ccc([C@H]2CC[C@H](CCN3CCC(Cc4ccccc4)CC3)CC2)cc1` [Example 2-86], for which the melting point fell in the range of 190 to 191 °C. In addition, the IC50 in data set [1] was greater than 100 nM.

Take `CC1(C)Oc2ncnc(N)c2N=C1c1ccc([C@H]2CC[C@H](CN3CCN(S(C)(=O)=O)CC3)CC2)cc1` [Example 2-240]: the melting point was in the range of 233 to 235 °C. In addition, the IC50 in data set [1] was 10 to 100 nM.

`CC1(C)Oc2ncnc(N)c2N=C1c1ccc2c(c1)CCCC2` [Example 2-66] had a melting point of 176 to 177 °C. Besides, the concentration for half-maximal inhibition (IC50) in data set [1] is greater than 100 nM.

For `Cc1nc(N)c2c(n1)OC(C)(C)C(c1ccc([C@H]3CC[C@H](CCNC(=O)C(C)(C)O)CC3)cc1)=N2` [Example 2-141], the melting point was 221 to 223 °C. In data set [1], the IC50 lay in the range of 10 to 100 nM.

Turning to `CC1(C)Oc2ncnc(N)c2N=C1c1ccc([C@H]2CC[C@H](CCN3CCC(CCO)CC3)CC2)cc1` [Example 2-87], the melting point was in the range of 221 to 222 °C. Moreover, the IC50 in data set [1] is greater than 100 nM.

As for `CC1(C)Oc2ncnc(N)c2N=C1c1ccc([C@H]2CC[C@H](CC(=O)N3CCC(O)CC3)CC2)cc1` [Example 2-77], the melting point was 137 to 139 °C. In addition, the IC50 in data set [1] is 10 to 100 nM.

Regarding `CN1CCN(C(=O)[C@H]2CC[C@H](c3ccc(C4=Nc5c(N)ncnc5OC4(C)C)cc3)CC2)CC1` [Example 2-238], the melting point was 190 to 191 °C. The IC50 in data set [1] is greater than 100 nM.

In turn, `CC1(C)Oc2ncnc(N)c2NC1c1ccc(Cl)cc1` (stereo not drawn) [Example 2-19] registered a melting point greater than 230 °C. Further, the IC50 in data set [1] was greater than 100 nM.

Compound `CN(C)c1ccc(-c2ccc(C3=Nc4c(N)ncnc4OC3(C)C)cc2)cc1` [Example 2-30] came in with a melting point of 210 to 211 °C. The IC50 in data set [1] was greater than 100 nM.

As for `Cc1nc(N)c2c(n1)OC(C)(C)C(c1ccc([C@H]3CC[C@H](CN4CCCC(O)C4=O)CC3)c(Cl)c1)=N2` (stereo partly drawn) [Example 6-19], the melting point was in the range of 225 to 226 °C. Besides, the IC50 in data set [1] is 10 to 100 nM.

The compound `CN(C)c1nc(N)c2c(n1)OCC(c1ccc(Br)cc1)=N2` [Example 1-30] registered a melting point greater than 220 °C. In data set [1], the IC50 was greater than 100 nM.

`CC(C)NC(=O)CC[C@H]1CC[C@H](c2ccc(C3=Nc4c(N)ncnc4OC3(C)C)cc2)CC1` [Example 2-187] gave a melting point of 206 to 208 °C. In addition, the IC50 in data set [1] is less than 10 nM.

With `CCN(CC)c1ccc(C2=Nc3c(N)ncnc3OC2)cc1` [Example 1-6], the melting point was 206 °C (dec.). Further, in data set [1], the IC50 was greater than 100 nM.

`CC1(C)Oc2ncnc(N)c2N=C1c1ccc([C@H]2CC[C@H](C(N)=O)CC2)cc1` [Example 2-204] showed a melting point greater than 250 °C. In data set [1], the IC50 lay in the range of 10 to 100 nM.

`Nc1ncnc2c1NC(c1ccc(Br)cc1)C1(CCCC1)O2` (stereo not drawn) [Example 2-14]: the melting point fell in the range of 226 to 233 °C. Further, the IC50 in data set [1] was greater than 100 nM.

`CC1(C)Oc2ncnc(N)c2N=C1c1ccc([C@H]2CC[C@H](OCC(=O)O)CC2)cc1` [Example 2-62] came in with a melting point greater than 230 °C. Also, the IC50 in data set [1] was in the range of 10 to 100 nM.

For the compound `CC1(C)Oc2ncnc(N)c2N=C1c1ccc([C@H]2CC[C@H](CCC(=O)N3CCC(O)CC3)CC2)cc1` [Example 2-180], the melting point was 200 to 202 °C. The IC50 in data set [1] fell in the range of 10 to 100 nM.

Consider `CC1(C)Oc2ncnc(N)c2N=C1c1ccc([C@H]2CC[C@H](CCN3CCC(O)CC3)CC2)cc1` [Example 2-84], for which the melting point lay in the range of 217 to 218 °C. Further, the concentration for half-maximal inhibition (IC50) in data set [1] was greater than 100 nM.

With `Cc1nc(N)c2c(n1)OC(C)(C)C(c1ccc([C@H]3CC[C@H](CC(=O)NC(C)(C)CO)CC3)cc1)=N2` [Example 2-135], the melting point is 229 to 230 °C. In data set [1], the IC50 is 10 to 100 nM.

The compound `Cc1nc(N)c2c(n1)OC(C)(C)C(c1ccc([C@H]3CC[C@H](CNC(=O)CO)CC3)cc1)=N2` [Example 2-138] registered a melting point of 235 to 238 °C. For the same compound, the half-inhibitory concentration (IC50) in data set [1] was in the range of 10 to 100 nM.

Take `CCOc1cc(C2=Nc3c(N)nc(C)nc3OC2(C)C)ccc1[C@H]1CC[C@H](CC(=O)O)CC1` [Example 6-8]: the melting point was in the range of 224 to 225 °C. Besides, the IC50 in data set [1] is 10 to 100 nM.

`CCCN(C)C(=O)CC[C@H]1CC[C@H](c2ccc(C3=Nc4c(N)ncnc4OC3(C)C)cc2)CC1` [Example 2-190] gave a melting point of 210 to 212 °C. In data set [1], the IC50 was 10 to 100 nM.

On to `CC1(C)Oc2ncnc(N)c2N=C1c1ccc2c(c1)CC(C(=O)O)C2` (stereo not drawn) [Example 2-71], for which the melting point is greater than 250 °C. The IC50 in data set [1] was greater than 100 nM.

`CCCNC(=O)C[C@H]1CC[C@H](c2ccc(C3=Nc4c(N)ncnc4OC3(C)C)cc2)CC1` [Example 2-102] yielded a melting point of 214 to 215 °C. Moreover, the IC50 in data set [1] lay within 10 to 100 nM.

In turn, `CCNC(=O)C=C1CCC(c2ccc(C3=Nc4c(N)ncnc4OC3(C)C)cc2)CC1` (stereo not drawn) [Example 2-47] gave a melting point of 229 to 230 °C. In addition, the IC50 in data set [1] was in the range of 10 to 100 nM.

The compound `CCCNC(=O)N1CCN(C[C@H]2CC[C@H](c3ccc(C4=Nc5c(N)ncnc5OC4(C)C)cc3)CC2)CC1` [Example 2-245] had a melting point of 180 to 182 °C. Moreover, in data set [1], the IC50 was 10 to 100 nM.

On to `Cc1nc(N)c2c(n1)OC(C)(C)C(c1ccc([C@H]3CC[C@H](CNC(=O)C(C)(C)O)CC3)c(Cl)c1)=N2` [Example 6-18], for which the melting point is greater than 250 °C. Moreover, the IC50 in data set [1] was 10 to 100 nM.

As to `Cc1nc(N)c2c(n1)OC(C)(C)C(c1ccc([C@H]3CC[C@H](Cc4nc(=O)o[nH]4)CC3)cc1)=N2` [Example 2-151], the melting point is greater than 250 °C. Also, the IC50 in data set [1] is less than 10 nM.

`CC1(C)Oc2ncnc(N)c2N=C1c1ccc([C@H]2CC[C@H](CCN3CCCC3)CC2)cc1` [Example 2-83] had a melting point of 142 to 143 °C. Besides, in data set [1], the IC50 was greater than 100 nM.

In the case of `CC1(C)Oc2ncnc(N)c2N=C1c1ccc([C@H]2CC[C@H](SCC(=O)O)CC2)cc1` [Example 2-112], the melting point is greater than 250 °C. Further, the IC50 in data set [1] lay in the range of 10 to 100 nM.

The compound `Cc1nc(N)c2c(n1)OC(C)(C)C(c1ccc([C@H]3CC[C@H](CNC4=NCCO4)CC3)cc1)=N2` [Example 2-162] came in with a melting point of 216 to 250 °C. In data set [1], the IC50 lay within 10 to 100 nM.

Compound `Nc1ncnc2c1N=C(c1ccc(Cl)cc1)CO2` [Example 1-3] displayed a melting point greater than 220 °C. Besides, in data set [1], the IC50 is greater than 100 nM.

`Nc1ncnc2c1N=C(c1ccc(C(F)(F)F)cc1)CO2` [Example 1-8] displayed a melting point greater than 220 °C. In addition, in data set [1], the IC50 was greater than 100 nM.

`Cc1nc(N)c2c(n1)OC(C)(C)C(c1ccc([C@H]3CC[C@H](c4nn[nH]n4)CC3)cc1)=N2` [Example 2-263] showed a melting point greater than 250 °C. The IC50 in data set [1] is less than 10 nM.
